{"source": "patent US20060239990A1", "about": "“Protein Arginine N-Methyltransferase 2 (PRMT-2)” (priority 2003, published 2006)", "key": {"HIV-1 LTR": {"test_system": "HIV-1 LTR", "test": "HIV-1 reporter transcription, transient co-transfection", "format": "cell-based, human", "settings": "293T cells, expression plasmid co-transfected with HIV-1 reporter plasmid", "description": "Cell culture, transfection, and reporter gene assays. The E1A-transformed, human kidney cell line, 293, and NIH-3T3 cells were maintained in Dulbecco's Modified Eagle Medium (DMEM) supplemented with 10% fetal calf serum and penicillin-streptomycin at 37° C. in 5% carbon dioxide in tissue culture grade Petri dishes. PRMT-2−/− mouse embryo fibroblasts (MEFs) and wild type MEFs were prepared from day 13.5 embryos and maintained in DMEM supplemented with 10% fetal calf serum. MEFs at passage 4 were used in this experiment. Lipofectamine Plus™ reagent (Boehringer Mannheim) was used to transfect both 293 and NIH-3T3 cells according to directions from the manufacturer. […] TNF-α stimulation of cells was done using recombinant TNF-α (200 U/ml) for 12 hours. Transfected cells were harvested at 36 hours, and CAT activity was assayed on 10 to 100 μg of protein from whole cell extracts. CAT assays were performed essentially as described in Leung, K. & Nabel, G. J. Nature 333, 776-778 (1988). To analyze the κB-reporter activity in MEFs, cells were transfected with the reporter (2×kB-Luc) and PRL-TK vector (Promega) using FuGENE6 transfection reagent (Roche). Luciferase activity was analyzed by Dual-Luciferase Reporter Assay System (Promega). […]"}, "RB": {"target": "T1, RB (Homo sapiens, UniProt P06400)", "T1 construct": "coding region of RB cDNA was subcloned into pGEX-6P (Amersham/Pharmacia) for generation of GST-RB; made in house", "T1 sequence (P06400 1-928)": "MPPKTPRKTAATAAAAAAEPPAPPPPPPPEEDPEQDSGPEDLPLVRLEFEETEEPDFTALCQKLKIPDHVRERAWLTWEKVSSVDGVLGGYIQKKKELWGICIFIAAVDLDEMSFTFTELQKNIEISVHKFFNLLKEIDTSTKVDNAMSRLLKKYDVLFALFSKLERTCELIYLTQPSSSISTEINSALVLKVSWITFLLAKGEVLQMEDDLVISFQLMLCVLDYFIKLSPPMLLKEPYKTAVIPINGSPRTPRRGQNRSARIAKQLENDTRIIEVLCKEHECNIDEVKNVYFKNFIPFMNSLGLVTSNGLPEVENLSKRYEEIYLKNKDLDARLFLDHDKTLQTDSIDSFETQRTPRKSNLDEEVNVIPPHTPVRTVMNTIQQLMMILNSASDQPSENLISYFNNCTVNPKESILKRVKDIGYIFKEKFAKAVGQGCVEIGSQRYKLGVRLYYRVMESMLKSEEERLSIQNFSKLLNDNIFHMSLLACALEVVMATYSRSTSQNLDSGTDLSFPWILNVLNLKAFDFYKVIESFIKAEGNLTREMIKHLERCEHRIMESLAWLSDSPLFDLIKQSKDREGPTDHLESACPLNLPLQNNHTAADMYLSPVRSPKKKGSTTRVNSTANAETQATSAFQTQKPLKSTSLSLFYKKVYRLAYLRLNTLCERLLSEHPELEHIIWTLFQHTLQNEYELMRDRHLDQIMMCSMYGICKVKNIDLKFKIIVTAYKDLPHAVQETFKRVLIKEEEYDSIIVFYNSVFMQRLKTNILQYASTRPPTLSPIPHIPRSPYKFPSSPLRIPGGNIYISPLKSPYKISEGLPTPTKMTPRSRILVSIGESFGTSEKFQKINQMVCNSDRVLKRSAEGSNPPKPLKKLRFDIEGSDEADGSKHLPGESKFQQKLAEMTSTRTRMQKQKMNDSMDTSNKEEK", "test": "In vitro binding assay with GST-RB", "settings": "S35-labeled in vitro translated protein", "description": "The crude cell lysate of the GST-fusion proteins was prepared and purified according to the manufacture's protocol (Amersham/Pharmacia). [^35S]-methionine-labeled protein was produced by in vitro transcription/translation using the TNT T7-coupled reticulocyte lysate system (Promega). [^35S]-methionine-labeled protein and GST-fusion protein bound to glutathione sepharose 4B beads were incubated in 500 μl of HNE buffer (50 mM Hepes, pH 7.8, 150 mM NaCl, 1 mM EDTA, 1 mM DTT, 1% NP40, and 1× protease inhibitor mix (Complete: Roche)) at 4° C. for 1 hour. Beads were washed four times with HNE buffer, and then analyzed on an SDS-PAGE gradient gel (4-15%). For the detection of endogenous PRMT-2 interaction with RB, MEFs were lysed with WCL buffer (50 mM Hepes, pH 7.8, 400 mM NaCl, 2 mM EDTA, 1 mM DTT, 0.2% NP40, 10% Glycerol, 20 mM α-glycerophosphate, 5 mM NaF, 0.1 mM NaVO4, and 1× protease inhibitor mix). Then, 1 mg of whole cell extracts were incubated with HNE buffer without DTT and 3 μg of antibodies as indicated. The immune complexes were isolated using protein G beads, and washed four times with HNE buffer. The precipitated protein was boiled with SDS-loading buffer and resolved on SDS-PAGE. […]"}, "Stat3": {"test_system": "Stat3", "test": "Leptin-stimulated Stat3 tyrosine phosphorylation in VSMC nuclear extracts", "format": "cell-based, mouse", "settings": "o-vanadate 200 μM pretreatment 15 min", "description": "Cytoplasmic/nuclear extracts were prepared by Dounce homogenizing cells in Cytoplasmic lysis buffer (20 mM HEPES, pH7.9, 10 mM KCl, 1 mM MgCl2, 1% NP-40, 10% glycerol, 100 mM NaF, 1 mM Na3VO4, 1× protease inhibitors cocktail), and sedimenting nuclei by centrifugation at 1,000 rpm for 5 min. The supernatants were removed as samples of cytoplasmic fraction. The nuclei were extracted with nuclear lysis buffer (20 mM HEPES, pH7.9, 300 mM NaCl, 10 mM KCl, 1 mM MgCl2, 1% […], 10% glycerol, […], 1 mM Na3VO4, 1× protease inhibitors cocktail), and then subjected to the immunoblotting.\nImmunoblotting was performed by boiling samples for 5 min at 95° C. followed by centrifugation for 1 min at 4° C. Aliquots of the supernatant were subjected to 7.5, 10% or 4-15% SDS-PAGE. Proteins in the gel were transferred to a nitrocellulose membrane by electroblotting. The membranes were treated with either anti-pTyr, anti-STAT3, anti-phospho STAT3, anti-α-metR, anti-IRS-1, anti-Flag, anti-phospho IRS-1, anti-arginine (mono- and di-methyl), or anti-β-actin antibodies followed by incubation with secondary antibodies conjugated with HRP. Immunoreactive proteins were detected either by ECL or by ECL plus system (Amersham Pharmacia Biotech). In some cases, bands were quantified using the NIH Image software (Image J version 1.2; National Institutes of Health, Bethesda, Md.). […]"}, "IκBα": {"test_system": "IκBα", "test": "Confocal quantification of nuclear IκBα in PRMT2−/− fibroblasts", "format": "cell-based, mouse", "settings": "after TNF-α 30 min, 30 minutes LMB", "description": "Immunohistochemistry and confocal microscopy. PRMT2^−/− fibroblasts were transfected with a HA-tagged PRMT2 expression vector. 36 hrs after transfection the cells were treated with TNF-α for 30 min. The media was then removed and cells were incubated for an additional 30 minutes in the presence or absence of LMB. Cells were fixed, permeabilized with CytoFix-CytoPerm (BD Biosciences) for 20 minutes, and washed with Perm/Wash buffer (BD Biosciences). IκBα (Rabbit Polyclonal antibody, 1:1000; Santa Cruz Biotechnology) and HA (Rat Monoclonal antibody, 1:500; Roche) were diluted in Perm/Wash buffer and incubated for 1 hr. After two washes cells were stained with anti rabbit Alexa 488 and anti rat Alexa […] (1:1000, Invitrogen) for 30 min. Cells were washed and mounted with Ultracruz mounting media (Santa Cruz) containing DAPI. Confocal microscopy was performed using a Leica confocal microscope."}}, "data": [{"molecule": "PRMT1: human protein arginine methyltransferase 1, expression construct [reference compound]", "values": [{"measurement": "stimulation of HIV-1 transcription", "setting": "HIV-1 LTR", "value": "about 10 fold"}, {"measurement": "binding to RB", "setting": "RB", "value": "do not bind RB"}]}, {"molecule": "[O]=[V]([O-])([O-])[O-]", "note": "[o-vanadate]", "values": [{"measurement": "leptin-stimulated tyrosine phosphorylation of Stat3", "setting": "Stat3; PRMT2−/− VSMC nuclear extracts", "value": "no enhancement of tyrosine phosphorylation of Stat3"}, {"measurement": "leptin-stimulated tyrosine phosphorylation of Stat3", "setting": "Stat3; wild-type VSMC nuclear extracts", "value": "further enhanced leptin-stimulated tyrosine phosphorylation of Stat3"}]}, {"molecule": "CCC(=C/[C@H](C)C/C=C/C(C)=C/[C@@H](C)C(=O)[C@@H](C)[C@H](O)[C@@H](C)C/C(C)=C/C(=O)O)/C=C/[C@@H]1OC(=O)C=C[C@@H]1C", "note": "[LMB, leptomycin B]", "values": [{"measurement": "nuclear IκBα", "setting": "IκBα", "value": "promoted nuclear accumulation of IκBα"}]}]}
